From paper PMC7177456, “A Peptidomimetic Fluorescent Probe to Detect the Trypsin β2 Subunit of the Human 20S Proteasome” (International Journal of Molecular Sciences, 2020)

Columns and labels:
[1] = molecular target: T1, human 20S proteasome, trypsin-like (β2) subunit (Homo sapiens, UniProt P49720+Q99436); test: Kinetic parameters of substrate 1 with human 20S proteasome (allosteric fit); type: biochemical; settings: for kcat/Km: calculated from the kcat and Km values; for Km / kcat: 20S proteasome 1.07 × 10^−9 M
T1 construct: purchased Boston Biochem (Cambridge, MA, USA)
Description: (§1) For enzymatic studies, the human 20S proteasome, 26S proteasome, and 20S immunoproteasome were purchased from Boston Biochem (Cambridge, MA, USA). The 20S proteasome concentration for library deconvolution was in the nanomolar range, and this proteasome entity was used for the main study. Deconvolution of the peptide libraries was performed using the iterative solution method. Dimethyl sulfoxide (DMSO) was used as a solvent for preparation of the stock solution (5 mg/mL) for each lyophilized sub-library. This stock solution was diluted ten times using an assay buffer (50 mM Tris/HCl buffer (pH 8.2)) for the 20S and 20Si proteasome, and for 26S, the buffer was supplemented with 40 mM KCl, 2 mM EDTA, 1 mM DTT, 100 µM ATP, and 50 µg/mL bovine serum albumin (BSA). The volume composition of each well of the 96-well plate was: 20 µL library, 160 µL assay buffer, and 20 µL 20S proteasome solution at a concentration of 1.07 × 10^−9 M. Absorbance or fluorescence measurements were performed on a FluoroStar OMEGA multimode microplate reader (BMG, Ortenberg, Germany). Absorbance increases were monitored at 410 nm. The excitation and emission wavelengths were 320 and 450 nm respectively, for the ABZ/ANB. Enzymatic hydrolysis of the peptide was performed in the assay buffer at 37 °C and continued over 60 min.
The procedures to determine the kinetic constants Km and kcat are described below. Increasing concentrations of substrate 1 ranged from 1 × 10^−6 to 2 × 10^−5 M. In parallel, a kinetic assay with the artificial activator SDS at 0.01% was also performed. The data were fitted to an allosteric plot using GraphPad prism v6.0 (GraphPad Software Inc., La Jolla, CA, USA). The specificity constants (kcat/ Km) were calculated from the kcat and Km values. Measurements were performed using a 20S proteasome concentration of 1.07 × 10^−9 M. Three to five measurements were performed for each compound dilution (the systematic error, defined as the standard deviation, never surpassed 20%). The initial hydrolysis rates were used as the amount of enzymatic activity for the tested compounds. All kinetic study details and kinetic parameters have been described elsewhere.

[2] = tested on: 20S proteasome; test: Titration: 20S proteasome assay detection limit; type: biochemical, human; settings: substrate 1.34 × 10^−5 M; 20S proteasome 0.05 to 2 nM; 37 °C, 30 min; 320/450 nm; triplicate
Description: A total of 160 µL assay buffer was added to each well of the 96-well plate, containing a constant substrate concentration (1.34 × 10^−5 M) (20 µL), followed by 20 µL of the 20S proteasome, with concentrations ranging from 0.05 to 2 nM. In total, seven different concentrations were used. The excitation and emission wavelengths were 320 and 450 nm, respectively. Enzymatic hydrolysis of the peptide was performed in the previously described buffer at 37 °C and continued over 30 min. A linear fragment of the curve was chosen, and the slope was calculated for each system. All measurements were performed in triplicate.

[3] = tested on: 20S proteasome, 26S proteasome and immunoproteasome 20S; test: Cleavage of substrate 1 by 20S, 26S and 20S immunoproteasome; type: biochemical, human; settings: 20S vs 26S vs 20S immunoproteasome, equimolar concentrations; initial screening
Description: as §1

[4] = in the presence of artificial activator SDS 0.01%, pH 8.2, 37 °C

Substance: ABZ–Dap(O2(Cbz))–Dap(GO1)–Dap(O2(Cbz))–Arg–ANB–NH2 [substrate 1]
- kcat/Km ([1]; in the presence of artificial activator SDS 0.01%): 3.23e+07 M⁻¹ s⁻¹
- Km [1, 4]: 6.84 ± 0.12 µM
- kcat [1, 4]: 221 ± 18 s⁻¹
- kcat ([1]; substrate alone, without SDS, 50 mM Tris/HCl pH 8.2, 37 °C): 245 ± 21 s⁻¹
- Km ([1]; substrate alone, without SDS, 50 mM Tris/HCl pH 8.2, 37 °C, substrate 1 × 10^−6 to 2 × 10^−5 M, ABZ/ANB fluorescence 320/450 nm, three to five measurements): 3.22 ± 0.02 µM
- kcat/Km ([1]; substrate alone, without SDS): 7.61e+07 M⁻¹ s⁻¹
- type of cleavage kinetics ([1]; substrate alone, characteristic for allosteric enzymes): sigmoidal kinetics
- 20S proteasome assay detection limit [2]: 10^−11 M
- selectivity among proteasome entities [3]: selectively proteolyzed by the 20S proteasome
